Assay results as given in patent publication US10633389B2, “CARM1 inhibitors and uses thereof” (Epizyme, Inc., priority 2013, dated 2020).

What was measured:
human CARM1 (PRMT4) = human CARM1 (PRMT4) (Homo sapiens (Human), UniProt Q86X55); experiment: CARM1 enzyme assay on peptide substrate (3H-SAM Flashplate); conditions: Biochemical potencies, read-out: Biochem IC50
[1] = tested on: asymmetric di-methyl PABP1 in RKO cells; experiment: RKO methylation assay, In Cell Western (ICW) for asymmetric di-methyl PABP1; format: cell-based; conditions: Homo sapiens, RKO, Cellular potencies, ICW PABP1me2a
Procedure, shortened: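 RKO cells treated with compound for 48 h at 37 °C, then fixed, permeabilized and immunostained for asymmetric di-methyl PABP1, with DRAQ5 as DNA stain. Infrared 700/800 nm signal ratio normalized to DMSO and 20 μM reference-compound controls; IC50 from triplicate wells.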

Sequence of human CARM1 (PRMT4) (Q86X55 other isoform, or with tags, fused parts or gaps isoform Q86X55-1): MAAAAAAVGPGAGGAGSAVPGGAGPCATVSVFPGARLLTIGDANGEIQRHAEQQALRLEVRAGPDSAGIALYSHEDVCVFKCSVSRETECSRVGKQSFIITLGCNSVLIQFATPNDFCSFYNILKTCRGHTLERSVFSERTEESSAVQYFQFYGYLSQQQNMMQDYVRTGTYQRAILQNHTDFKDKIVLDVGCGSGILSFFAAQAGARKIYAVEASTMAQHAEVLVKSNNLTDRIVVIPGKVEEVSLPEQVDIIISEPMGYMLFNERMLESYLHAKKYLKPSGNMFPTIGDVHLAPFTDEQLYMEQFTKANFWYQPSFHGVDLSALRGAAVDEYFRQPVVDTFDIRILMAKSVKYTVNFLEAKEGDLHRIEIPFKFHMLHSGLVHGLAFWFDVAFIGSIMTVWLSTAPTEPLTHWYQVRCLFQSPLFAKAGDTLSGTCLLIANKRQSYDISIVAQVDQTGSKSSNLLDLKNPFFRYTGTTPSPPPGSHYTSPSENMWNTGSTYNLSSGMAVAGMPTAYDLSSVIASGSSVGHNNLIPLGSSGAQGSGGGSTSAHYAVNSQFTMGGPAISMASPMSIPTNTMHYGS

Row | Structure (SMILES) | IC50 (human CARM1 (PRMT4)) [µM] | IC50 [1] [µM]
1 | CNCC(O)COc1cccc(-c2nc(N[C@@H]3CCOC3)c(C)c(N(C)Cc3ccccn3)n2)c1 (stereo partly drawn) [Example 393-1a] | 0.1 to 1 | 10 to 20
2 | CNCC(O)COc1cccc(-c2nc(NC3(C(=O)NC)CCOC3)c(C)c(-c3c(C)noc3C)n2)c1 (stereo not drawn) [Example 113-1a] | 3 to 10 | 10 to 20
3 | CNCC(O)COc1cccc(-c2nc(NC3CCOC3)c(C)c(C(=O)NC3CCOCC3)n2)c1 (stereo not drawn) [Example 383-1a] | 1 to 3 | 10 to 20
4 | CNCC(O)COc1cccc(-c2nc(NCCOC)cc(-c3ccc(C(F)(F)F)nc3)n2)c1 (stereo not drawn) [Example 636-1a] | 0.1 to 1 | ≥ 20
5 | CNCC(O)COc1cccc(-c2nc(N3C[C@@H]4CCCN(C(C)=O)[C@@H]4C3)cc(N(C)C3CCOCC3)n2)c1 (stereo partly drawn) [Example 539-1a] | 0.1 to 1 | 10 to 20
6 | CNCC(O)COc1cccc(-c2nc(NC3CCOC3)c(C)c(N3CCCC4(CCOCC4)C3)n2)c1 (stereo not drawn) [Example 401-1a] | 0.1 to 1 | 10 to 20
7 | CNCC(O)COc1cccc(-c2nc(N3CCC(O)(CCO)CC3)cc(N(C)C3CCOCC3)n2)c1 (stereo not drawn) [Example 591-1a] | 0.1 to 1 | 10 to 20
8 | CNCC(O)COc1cccc(-c2nc(-c3c(C)noc3C)c(C)c(N3CCO[C@@H](CO)C3)n2)c1 (stereo partly drawn) [Example 123-1a] | 0.1 to 1 | 5 to 10
9 | CNCC(O)COc1cccc(-c2nc(N[C@@H]3CCOC3)c(C)c(N3CCn4cnnc4C3)n2)c1 (stereo partly drawn) [Example 418-1a] | 0.1 to 1 | 10 to 20
10 | CNCC(O)COc1cccc(-c2nc(N[C@@H]3CCOC3)c(C)c(-c3ccnc(NC)c3)n2)c1 (stereo partly drawn) [Example 388-1a] | 0.1 to 1 | 10 to 20
11 | CNCC(O)COc1cccc(-c2nc(N[C@H]3CCOC3)c(C)c(C3CCOCC3)n2)c1 (stereo partly drawn) [Example 347-1a] | 0.1 to 1 | 10 to 20
12 | CNCC(O)COc1cccc(-c2nc(N3CCCC4(CCOCC4)C3)cc(N(C)C3CCOCC3)n2)c1 (stereo not drawn) [Example 494-1a] | 0.1 to 1 | < 5
13 | CNCC(O)COc1cccc(-c2nc(NC3CCOCC3)c(C)c(N3CCN(C(C)=O)CC3)n2)c1 (stereo not drawn) [Example 643-1a] | 1 to 3 | ≥ 20
14 | CNCC(O)COc1cccc(-c2nc(N[C@@H]3CCOC3)c(C)c(N3CCn4c(nnc4C(F)(F)F)C3)n2)c1 (stereo partly drawn) [Example 365-1a] | 0.1 to 1 | 10 to 20
15 | CNCC(O)COc1cccc(-c2nc(-c3c(C)noc3C)cc(N(C)C(C)=O)n2)c1 (stereo not drawn) [Example 64-1a] | 0.1 to 1 | 10 to 20
16 | CNCC(O)COc1cccc(-c2nc(C(=O)N(C)C3CCOCC3)cc(N(C)C3CCOCC3)n2)c1 (stereo not drawn) [Example 602-1a] | 0.1 to 1 | 10 to 20
17 | CNCC(O)COc1cccc(-c2nc(N[C@H]3C[C@H](O)C3)cc(N(C)C3CCOCC3)n2)c1 (stereo partly drawn) [Example 590-1a] | 0.1 to 1 | 10 to 20
18 | CNCC(O)COc1cccc(-c2nc(OC)c(C)c(-c3c(C)noc3C)n2)c1 (stereo not drawn) [Example 83-1a] | 0.1 to 1 | 10 to 20
19 | CNCC(O)COc1cccc(-c2nc(N[C@@H]3CCOC3)c(C)c(N3CCC(O)CC3)n2)c1 (stereo partly drawn) [Example 361-1a] | 0.1 to 1 | 10 to 20
20 | CNCC(O)COc1cccc(-c2nc(NC3CCOC3)c(C)c(C(=O)NC)n2)c1 (stereo not drawn) [Example 384-1a] | 0.1 to 1 | 10 to 20
21 | CNCC(O)COc1cccc(-c2nc(NC3CCOCC3)cc(-c3cncnc3)n2)c1 (stereo not drawn) [Example 655-1a] | 0.1 to 1 | ≥ 20
22 | CNCC(O)COc1cccc(-c2nc(N[C@@H]3CCOC3)cc(N3CCOCC3)n2)c1 (stereo partly drawn) [Example 387-1a] | 0.1 to 1 | 10 to 20
23 | CNCC(O)COc1cccc(-c2nc(NC3CCOCC3)c(C(F)F)c(-c3c(C)noc3C)n2)c1 (stereo not drawn) [Example 214-1a] | 0.1 to 1 | 5 to 10

Row | Structure (SMILES) | IC50 (human CARM1 (PRMT4)) [µM] | IC50 [1] [µM]
24 | CNCC(O)COc1cccc(-c2nc(O)c(C)c(-c3c(C)noc3C)n2)c1 (stereo not drawn) [Example 73-1a] | 0.1 to 1 | 10 to 20
25 | CNCC(O)COc1cccc(-c2nc(NCC3(CCl)CCOCC3)cc(N(C)C3CCOCC3)n2)c1 (stereo not drawn) [Example 584-1a] | 0.1 to 1 | 10 to 20
26 | CNCC(O)COc1cccc(-c2nc(-c3c[nH]cn3)cc(N(C)C3CCOCC3)n2)c1 (stereo not drawn) [Example 589-1a] | 0.1 to 1 | 10 to 20
27 | CNCC(O)COc1cccc(-c2nc(N3CCN(CC(F)F)CC3)cc(N(C)C3CCOCC3)n2)c1 (stereo not drawn) [Example 518-1a] | 0.1 to 1 | 5 to 10
28 | CNCC(O)COc1cccc(-c2nc(N3CC4(CCOCC4)C3)cc(N(C)C3CCOCC3)n2)c1 (stereo not drawn) [Example 553-1a] | 0.1 to 1 | 10 to 20
29 | CNCC(O)COc1cccc(-c2nc(N[C@@H]3CCOC3)c(C)c(-c3c(C)nn(C)c3C)n2)c1 (stereo partly drawn) [Example 354-1a] | 0.1 to 1 | 10 to 20
30 | CNCC(O)COc1cccc(-c2nc(N[C@@H]3CC[C@@H](O)C3)c(C)c(N3CCOCC3)n2)c1 (stereo partly drawn) [Example 679-1a] | 1 to 3 | ≥ 20
31 | CNCC(O)COc1cccc(-c2nc(N(C)C3CCOCC3)cc(N3CCN(C(C)=O)CC34CC4)n2)c1 (stereo not drawn) [Example 552-1a] | 0.1 to 1 | 10 to 20
32 | CNCC(O)COc1cccc(-c2nc(N[C@@H]3CCOC3)c(C)c(-c3ccc(=O)[nH]c3)n2)c1 (stereo partly drawn) [Example 409-1a] | 0.1 to 1 | 10 to 20
33 | CNCC(O)COc1cccc(-c2nc(N3CC[C@H](N(C)C(C)=O)C3)cc(N(C)C3CCOCC3)n2)c1 (stereo partly drawn) [Example 547-1a] | 0.1 to 1 | 10 to 20
34 | CNCC(O)COc1cc(OC)cc(-c2nc(NC3CCOC3)c(C)c(N3CCN(C(C)=O)[C@@H](C)C3)n2)c1 (stereo partly drawn) [Example 432-1a] | 0.1 to 1 | 10 to 20
35 | CNCC(O)COc1cccc(-c2nc(C3=CCCC3)cc(C(CCOC)CCOC)n2)c1 (stereo not drawn) [Example 651-1a] | 0.1 to 1 | ≥ 20
36 | CNCC(O)COc1cccc(-c2nc(Nc3c(C)noc3C)cc(N(C)C3CCOCC3)n2)c1 (stereo not drawn) [Example 597-1a] | 0.1 to 1 | 10 to 20
37 | CNCC(O)COc1cccc(-c2nc(C3CCN(C(C)=O)CC3)cc(N(C)C3CCOCC3)n2)c1 (stereo not drawn) [Example 546-1a] | 0.1 to 1 | 10 to 20
38 | CNCC(O)COc1cccc(-c2nc(NC3CCOCC3)cc(N(C3CC3)[C@@H]3CCOC3)n2)c1 (stereo partly drawn) [Example 372-1a] | 1 to 3 | 10 to 20
39 | CCN1CCN(c2nc(-c3cccc(OCC(O)CNC)c3)nc(NC3CCOCC3)c2C)CC1 (stereo not drawn) [Example 641-1a] | 0.1 to 1 | ≥ 20
40 | CNCC(O)COc1cccc(-c2nc(N(C)C3CCOCC3)c(C)c(C(C)(C)O)n2)c1 (stereo not drawn) [Example 545-1a] | 0.1 to 1 | 10 to 20
41 | CNCC(O)COc1cccc(-c2nc(NC3CCOCC3)cc(-c3c(C)nn(C)c3C)n2)c1 (stereo not drawn) [Example 675-1a] | 0.1 to 1 | ≥ 20
42 | CNCC(O)COc1cccc(-c2nc(NCC3CCNCC3)cc(-c3ccncc3)n2)c1 (stereo not drawn) [Example 662-1a] | 0.1 to 1 | ≥ 20
43 | CNCC(O)COc1cccc(-c2nc(C3CCN(C(=O)OC)CC3)cc(N(C)C3CCOCC3)n2)c1 (stereo not drawn) [Example 533-1a] | 0.1 to 1 | 5 to 10
44 | COC(=O)N1CC[C@H](Nc2nc(-c3cc(OC[C@H](O)CN(C)C)ccc3Cl)nc(-c3c(C)noc3C)c2C)C[C@@H]1C [Example 193-3] | 0.1 to 1 | ≥ 20
45 | CNCC(O)COc1cccc(-c2nc(NC3CCOC(C)C3)c(C)c(-c3c(C)noc3C)n2)c1Cl (stereo not drawn) [Example 80-3] | 0.1 to 1 | ≥ 20
